US11439618B2, “Compositions and methods for lowering triglycerides” (Amarin Pharmaceuticals Ireland Limited, priority 2009, dated 2022)

Tested on: subjects with Age-Associated Memory Impairment
Assay: Safety and tolerability (adverse events), 6-week AAMI study
Format: in vivo, human
Description: All randomized subjects that received at least 1 dose of study medication were included in the Safety Population.
Safety evaluations were based on the safety population. Safety and tolerability were assessed in terms of AEs, vital signs, 12-lead ECG, clinical laboratory data, medical history, and study drug compliance. Safety and tolerability data were presented by treatment group.

CC/C=C\C/C=C\C/C=C\C/C=C\C/C=C\CCCC(=O)OCC [Ethyl-EPA, all-cis eicosa-5,8,11,14,17-pentaenoic acid ethyl ester] was tested, and the “Nausea Probably Related to the study drug” value (1 g) was “One”, the “Nausea Possibly Related to the study drug” value (“Nausea Possibly Related” below) (1 g cohort) was “two” and the “Nausea Possibly Related” value (2 g cohort) was “one”. For the same compound, the SAE reported (2 g treatment group) was “One”, the “Subjects discontinued due to TEAEs” value (2 g treatment group) was 2 subjects and the “Serious adverse event (worsening epigastric chest pain), relation to study drug” value (2 g, one subject, 17 days after start, 9 days after last dose) was “unrelated to the study drug”. For the same compound, the “Nausea Possibly Related” value (4 g cohort) was “two”, the “Diarrhea, relation to the study drug” value (4 g, one subject) was “diarrhea that was Probably Related to the study drug” and the “Treatment emergent AEs (TEAEs) reported” value (ethyl-EPA treatment groups (1, 2, 4 g), placebo groups 34 events) was 105 events. For the same compound, the “Deaths during the study” value (whole study) was “no deaths”, the “Severity and relatedness of most TEAEs” value (whole study) was “mild in severity and unrelated to study drug” and the “TEAEs Definitely Related to the study drug” value (whole study) was “No TEAEs were Definitely Related”.
